Reference: ChEMBL document CHEMBL1127984, “Beneficial replacement of the P1 phenylalanine side chain in HIV-1 protease inhibitors of the difluorostatone type” (Bioorg Med Chem Lett, 1994)

Columns and labels:
MT4 [1] = experiment: […]; format: functional; settings: Homo sapiens
[2] = target: Human immunodeficiency virus type 1 protease (Human immunodeficiency virus 1, UniProt Q72874); experiment: Compound was tested for inactivation of purified HIV-1 protease in vitro
[3] = Ratio between Cytotoxic dose and effective dose was determined; format: functional
MT4 [4] = experiment: Effective dose that inhibits cellular growth of MT-4 cells infected with HIV-1 RF strain; format: functional, cell-based; settings: Homo sapiens
C8166 [5] = experiment: Cytotoxic dose against HIV-1 was determined in C8166 cells; format: functional; settings: Homo sapiens
MT2 [6] = experiment: Effective dose that inhibits cellular growth of MT2 cells infected with HIV-1 105/A strain; format: functional, cell-based; settings: Homo sapiens
JM1 [7] = experiment: Cytotoxic dose against HIV-1 GB8 strain was determined in JM cells; format: functional; settings: Homo sapiens
C8166 [8] = experiment: Effective dose that inhibits cellular growth of C8166 cells infected with SIV mac251 strain; settings: Homo sapiens
H9 [9] = experiment: Effective dose that inhibits cellular growth of H9 cells infected with HIV-1 RF strain; format: functional, cell-based; settings: Homo sapiens
Homo sapiens = species on record: Homo sapiens; experiment: Effective dose that inhibits cellular growth of PBMCs cells infected with HIV-1 CCI strain; format: functional, cell-based; settings: PBMC
H9 [10] = experiment: Effective dose that inhibits cellular growth of H9 cells infected with HIV-1 U455 strain; format: functional, cell-based; settings: Homo sapiens
C8166 [11] = experiment: Effective dose that inhibits cellular growth of C8166 cells infected with HIV-2 rod strain; format: functional, cell-based; settings: Homo sapiens
CCRF-CEM = experiment: Effective dose that inhibits cellular growth of CEM cells infected with HIV-1 IIIB strain; format: functional, cell-based; settings: Homo sapiens
H9 [12] = experiment: Effective dose that inhibits cellular growth of H9 cells infected with HIV-1 IIIB strain; format: functional, cell-based; settings: Homo sapiens
C8166 [13] = experiment: Effective dose that inhibits cellular growth of C8166 cells infected with HIV-1 RF strain; format: functional, cell-based; settings: Homo sapiens
JM1 [14] = experiment: Effective dose that inhibits cellular growth of JM cells infected with HIV-1 GB8 strain; format: functional, cell-based; settings: Homo sapiens
MT2 [15] = experiment: Effective dose that inhibits cellular growth of MT2 cells infected with HIV-1 105/F strain; format: functional, cell-based; settings: Homo sapiens

Row | SMILES | CC50 (MT4 [1]) [nM] | IC50 [2] [nM] | Ratio [3] | EC50 (MT4 [4]) [nM] | Ki [2] [nM] | other results
1 | O=C(NC(C(=O)NC(Cc1ccc(OCc2ccccc2)cc1)C(=O)C(F)(F)C(=O)NCc1ccccc1)C1CCCC1)OCc1ccccc1 (centres undefined) | > 100000 | 6 | >33 |  |  | 
2 | O=C(NC(C(=O)NC(Cc1ccc(OCc2ccccc2)cc1)C(=O)C(F)(F)C(=O)NCc1ccccc1)C1CCCCC1)OCc1ccccc1 (centres undefined) | > 100000 | 70 |  | > 100000 |  | 
3 | CC(C)C[C@H](NC(=O)OCc1ccccc1)C(=O)NC(Cc1ccc(OCc2ccccc2)cc1)C(=O)C(F)(F)C(=O)NCc1ccccc1 (some centres undefined) | 3200 | 15 | 17 | 190 |  | 
4 | CC(C)[C@H](NC(=O)OCc1ccccc1)C(=O)NC(Cc1ccc(OCc2ccccc2)cc1)C(=O)C(F)(F)C(=O)N1CCc2ccccc2C1 (some centres undefined) | > 100000 | 2 | >280 | 360 |  | 
5 | CC(C)[C@H](NC(=O)CCc1cccnc1)C(=O)NC(Cc1ccc(OCc2ccccc2)cc1)C(=O)C(F)(F)C(=O)NCc1ccccc1 (some centres undefined) | > 100000 | 8 | >100 | 320 |  | 
6 | CC(C)[C@H](NC(=O)OCc1ccccc1)C(=O)NC(Cc1ccc(OCc2ccccc2)cc1)C(=O)C(F)(F)C(=O)N1CCOCC1 (some centres undefined) | 64000 |  | 20 | 3200 | 5 | 
7 | CC(C)[C@H](NC(=O)OCc1ccccc1)C(=O)NC(Cc1ccccc1)C(=O)C(F)(F)C(=O)N1CCOCC1 (some centres undefined) | > 100000 |  | >2 | 50000 | 70 | 
8 | CC(C)[C@H](NC(=O)OCc1ccccc1)C(=O)NC(Cc1ccc(OCc2ccccc2)cc1)C(=O)C(F)(F)C(=O)NCc1ccccc1 (some centres undefined) | > 100000 |  | >300 | 300 | 5 | CC50 (C8166 [5]): > 100000 nM; EC50 (MT2 [6]): 230 nM; CC50 (JM1 [7]): > 100000 nM; EC50 (C8166 [8]): 630 nM; EC50 (H9 [9]): 56 nM; EC50 (Homo sapiens): 560 nM; EC50 (H9 [10]): 420 nM; EC50 (C8166 [11]): 350 nM; EC50 (CCRF-CEM): 720 nM; EC50 (H9 [12]): 290 nM; EC50 (C8166 [13]): 100 nM; EC50 (JM1 [14]): 140 nM; EC50 (MT2 [15]): 380 nM
9 | CC(C)[C@H](NC(=O)OC(C)(C)C)C(=O)NC(Cc1ccc(OCc2ccccc2)cc1)C(=O)C(F)(F)C(=O)NCc1ccccc1 (some centres undefined) | 10000 |  |  | > 10000 |  | 
10 | CCN(Cc1ccccc1)C(=O)C(F)(F)C(=O)C(Cc1ccc(OCc2ccccc2)cc1)NC(=O)[C@@H](NC(=O)OCc1ccccc1)C(C)C (some centres undefined) | 10000 | 15 | ~1 | 8000 |  | 
11 | CC(C)[C@H](NC(=O)OCc1ccccc1)C(=O)NC(Cc1ccccc1)C(=O)C(F)(F)C(=O)NCc1ccccc1 (some centres undefined) | 23000 |  | ~5 | 5000 | 1 | 
12 | CC(C)[C@H](NC(=O)OCc1ccccc1)C(=O)NC(Cc1ccccc1)C(=O)C(F)(F)C(=O)N1CCc2ccccc2C1 (some centres undefined) |  | 50 |  |  |  | 
13 | CC(C)[C@H](NC(=O)OCc1ccccc1)C(=O)NC(Cc1ccc(OCc2ccccc2)cc1)C(=O)C(F)(F)C(=O)N(C)Cc1ccccc1 (some centres undefined) | > 100000 |  | >300 | 280 | 0.4 | 
14 | CC(C)[C@H](NS(=O)(=O)Cc1ccccc1)C(=O)NC(Cc1ccc(OCc2ccccc2)cc1)C(=O)C(F)(F)C(=O)NCc1ccccc1 (some centres undefined) |  | 48000 |  |  |  | 
